We go through nine compounds from ChEMBL document CHEMBL1139045, “Design and synthesis of a novel class of dual PPARgamma/delta agonists” (Bioorg Med Chem Lett, 2007).

pEC50, pIC50: −log10 of the molar value.

Series [1] deals with T1, Peroxisome proliferator-activated receptor delta (Homo sapiens, UniProt Q03181).
T1 sequence (Q03181 whole entry): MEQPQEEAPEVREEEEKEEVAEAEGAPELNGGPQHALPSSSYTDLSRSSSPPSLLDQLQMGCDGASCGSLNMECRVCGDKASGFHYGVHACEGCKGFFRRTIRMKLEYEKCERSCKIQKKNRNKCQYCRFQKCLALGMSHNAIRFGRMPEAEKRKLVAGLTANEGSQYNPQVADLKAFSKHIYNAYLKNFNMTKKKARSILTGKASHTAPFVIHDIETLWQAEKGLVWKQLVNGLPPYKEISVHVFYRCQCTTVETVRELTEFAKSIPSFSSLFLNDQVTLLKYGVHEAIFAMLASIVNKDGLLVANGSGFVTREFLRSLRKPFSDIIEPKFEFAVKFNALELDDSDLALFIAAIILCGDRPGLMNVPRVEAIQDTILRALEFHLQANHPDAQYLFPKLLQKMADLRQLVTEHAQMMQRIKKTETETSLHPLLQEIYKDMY

For series [2], the target named is T2, Peroxisome proliferator-activated receptor alpha (Homo sapiens, UniProt Q07869).
T2 sequence (Q07869 whole entry): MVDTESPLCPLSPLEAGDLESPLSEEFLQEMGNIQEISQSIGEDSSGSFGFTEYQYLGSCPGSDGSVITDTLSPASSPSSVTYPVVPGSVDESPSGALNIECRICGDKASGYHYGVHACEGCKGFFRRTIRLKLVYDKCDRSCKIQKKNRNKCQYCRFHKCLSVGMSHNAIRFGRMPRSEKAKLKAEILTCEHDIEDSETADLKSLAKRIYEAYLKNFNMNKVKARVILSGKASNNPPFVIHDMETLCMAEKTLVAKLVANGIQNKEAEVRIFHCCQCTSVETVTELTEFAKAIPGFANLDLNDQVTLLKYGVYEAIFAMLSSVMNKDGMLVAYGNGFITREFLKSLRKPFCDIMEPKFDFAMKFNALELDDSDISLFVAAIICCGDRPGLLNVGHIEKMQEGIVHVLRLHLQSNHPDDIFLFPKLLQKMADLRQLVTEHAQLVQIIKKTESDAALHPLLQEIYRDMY

Series [3] has as its target T1, Peroxisome proliferator-activated receptor delta. The series is classed as functional, cell-based, CV-1.
Series [4] addresses T2, Peroxisome proliferator-activated receptor alpha. It counts as functional, cell-based, CV-1.
The nature of series [5]: in vivo. The following applies: db/db, mouse.
Series [6] is described as follows: in vivo. The following applies: Sprague-Dawley, rat, po, 12 mg/kg.
Series [7] in a line: in vivo. The following applies: Sprague-Dawley, rat, po, 12 mg/kg. This is another data set of the same source.
The nature of series [8]: in vivo. The following applies: Sprague-Dawley, rat, po, 12 mg/kg. The source holds these as a separate data set.
Series [9] is described as follows: in vivo. The following applies: Sprague-Dawley, rat, iv, 1 mg/kg.

Regarding `CCc1cc(OCC[C@@H](C)Oc2ccc(C(F)(F)F)cc2-c2ccccn2)ccc1CCC(=O)O`, the values for the pIC50 in series [1] and in series [2] were 8.52 and 5.22, respectively. The pEC50 in series [3] was 8.22; in [4], 5.58. This compound registered a concentration at 1 h in “in vivo [5]” of 4200 ng/mL.

In series [2], `CCc1ccc(O[C@H](C)CCOc2ccc(CCC(=O)O)c(C)c2)c(-c2cscn2)c1` gave a pIC50 of 5.39. The pEC50 in series [4] was 5.57.

For the compound `CCc1ccc(O[C@H](C)CCOc2ccc(CCC(=O)O)c(C)c2)c(-c2cocn2)c1`, the pIC50 in series [2] is 5.30. The pEC50 in [4] is 5.55.

In turn, `CCc1ccc(O[C@H](C)CCOc2ccc(CCC(=O)O)c(C)c2)c(-c2cccnc2)c1` had a pEC50 in series [4] of 5.54.

`Cc1cc(OCC[C@@H](C)Oc2ccc(C(F)(F)F)cc2-c2ccccn2)ccc1CCC(=O)O`: the pIC50 in series [1] was 8.40; in [2], 5.23. Also, the pEC50 was 8.22 in series [3] and 5.63 in series [4].

Consider `CCc1ccc(O[C@H](C)CCOc2ccc(CCC(=O)O)c(CC)c2)c(-c2ccccn2)c1`, for which the pIC50 is 8.52 in series [1] and 5.13 in series [2]. Moreover, in the series “in vivo [6]”, the half-life is 3 h. The bioavailability in “in vivo [7]” was 71%. Also, the pEC50 in series [3] is 8.15. In “in vivo [8]”, this compound registered an AUC of 75500 ng·h/mL. The compound further came in with a clearance in the series “in vivo [9]” of 1.9 mL/min/kg.

Take `CCc1ccc(O[C@H](C)CCOc2ccc(CCC(=O)O)c(C)c2)c(-c2ccco2)c1`: in [2], the pIC50 is 5.35. For the same compound, the pEC50 in series [4] is 5.55.

On to `CCc1ccc(O[C@H](C)CCOc2ccc(CCC(=O)O)c(C)c2)c(-c2ncco2)c1`, for which, in series [2], the pIC50 was 4.98. The same compound had a pEC50 in series [4] of 5.54.

With `CCc1ccc(O[C@H](C)CCOc2ccc(CCC(=O)O)c(C)c2)c(-c2ccsc2)c1`, the pIC50 in series [2] was 5.23.
